Assay results from patent US20230146233A1, “A CLASS OF POLYCYCLIC COMPOUNDS INHIBITING RNA HELICASE DHX33 AND THE APPLICATION THEREOF” (Shenzhen KeYe Life Technologies, Co., Ltd, priority 2020, published 2023).

Legend:
DHX33 protein = target: T1, DHX33 protein (Mus musculus, UniProt Q80VY9); experiment: Inhibition of the helicase activity of DHX33 protein in vitro; assay type: biochemical; details: recombinant DHX33 protein, compound 1-1000 nM, 37° C., 60 minutes; read-out: IC50 (inhibitory effects of the compounds on the helicase activity of DHX33 protein)
T1 construct: purified full-length DHX33 protein; made in house; host or cells: E. coli BL-21pLysS (DE3)
T1 sequence (Q80VY9 1-698): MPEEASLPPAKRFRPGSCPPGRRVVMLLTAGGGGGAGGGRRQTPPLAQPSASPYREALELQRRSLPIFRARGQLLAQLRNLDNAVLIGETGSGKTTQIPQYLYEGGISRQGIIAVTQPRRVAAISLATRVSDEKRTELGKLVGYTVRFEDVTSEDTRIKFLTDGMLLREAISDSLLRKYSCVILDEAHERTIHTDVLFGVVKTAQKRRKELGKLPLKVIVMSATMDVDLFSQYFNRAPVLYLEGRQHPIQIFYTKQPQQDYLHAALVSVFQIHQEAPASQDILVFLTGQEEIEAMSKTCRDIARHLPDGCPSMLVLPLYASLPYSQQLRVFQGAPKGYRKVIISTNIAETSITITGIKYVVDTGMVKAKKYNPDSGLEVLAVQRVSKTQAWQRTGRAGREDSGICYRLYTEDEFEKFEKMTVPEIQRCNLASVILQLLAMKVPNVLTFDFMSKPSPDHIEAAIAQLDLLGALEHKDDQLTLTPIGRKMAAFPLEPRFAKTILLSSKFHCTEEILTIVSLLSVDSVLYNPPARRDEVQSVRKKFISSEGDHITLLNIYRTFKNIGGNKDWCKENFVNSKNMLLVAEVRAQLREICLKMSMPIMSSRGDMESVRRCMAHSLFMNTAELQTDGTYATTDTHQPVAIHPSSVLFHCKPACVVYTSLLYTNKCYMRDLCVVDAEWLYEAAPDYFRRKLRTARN
Method: Biochemistry. 2019:58 (4):250-8. RNA helicase gene (mouse DHX33 gene) was cloned into a pET32M-3C vector (between BamH I/Not I restriction sites). Afterward, the plasmid was transformed into BL-21pLysS (DE3) E. coli. 0.5 mM isopropyl 1-thio-βp-D-galactopyranoside (IPTG) was added, and the expression of the recombinant protein was induced at 16° C. for 16 hours. Cells were allowed to precipitate and were resuspended in a cell lysis buffer [50 mM Tris-HCl (pH7.2), 150 mM NaCl, 1% Triton X-100, and 50 mM imidazole supplemented with a protease inhibitor]. Thereafter, cells were subjected to ultrasonic treatment and centrifuged at a rotation speed of 13000 rpm for 25 minutes. The supernatant was incubated with the nickel-nitrilotriacetic acid beads equilibrated in Tris buffer, followed by sufficient washing. Thereafter, the purified protein was eluted with a solution of 300 mM imidazole in Tris buffer, and was then subjected to dialysis against an imidazole-free Tris buffer at 4° C. overnight.
The components involved in the reaction for testing the helicase activity were added to a 96-well opaque white plate. The method was outlined as follows. The 96-well plate was coated with neutravidin at a final concentration of 10 μg/mL (100 μl/well) overnight at 4° C. Afterwards, the neutravidin-coated plate was blocked with 100 μL of 0.1% (w/v) BSA (dissolved in normal PBS) at 22° C. for 2 hours. After washing, a DNA duplex (2.5 ng) that was resulted from the annealing of two single-stranded DNA oligonucleotides (the sequence of one single strand was biotin-labeled 5′-[…]-3′; and the sequence of the other single strand was DIG-labeled 5′-[…]-3′) [the annealing reaction was carried out in PBS (pH 7.0) containing 1M NaCl] was added, and the resulting mixture was incubated at 22° C. for 4 hours. After the addition of 90 μL of the reaction mixture, the helicase reaction was initiated [0.25 pig of purified full-length DHX33 protein, dissolved in 25 mM 4-MOPS (pH 7.0), 5 mM ATP 2 mM DTT, 3 mM MnCl2 and 100 μg/mL BSA]. The reaction was conducted at 37° C. for 60 minutes. After being washed, each well was incubated with a blocking solution [10% (w/v) BSA in 0.1 M maleic acid and 0.15 M NaCl (pH 7.5)] for 30 minutes, and was then incubated with 20 μL of antibody solution (anti-DIG-AP, Roche, in blocking buffer) for 30 minutes. After being washed with 100 μL of detection buffer [0.1 M Tris-HCl and 0.1 M NaCl (pH 9.5)], each well was added with 1 μL of chemiluminescent substrate (CSPD-0.25 mM), and the plate was incubated at 17° C. for 5 minutes. Afterwards, the plate was patted dry and incubated at 37° C. for 30 minutes. The remaining DIG-AP marker control in each well was counted for 10 minutes by a luminescence multi-well plate reader (Enspire, PerkinElmer). Higher reading indicated weaker helicase activity.
Positive control and negative controls were set for this acticity assay. Among them, one negative control group, which differed from the experimental group only in that the former was not added with ATP (other conditions were the same as the experimental group), was used for the comparison with the experimental group; another negative control group, which differed from the experimental group only in that the former was not added with DHX33 protein (other conditions were the same as the experimental group), was used for the comparison with the experimental group. The positive control group was set for the comparison with the wild-type DHX33 protein (standard substance).
Biochemistry. 2019:58 (4):250-8.
Compounds having a series of concentration (the concentrations were set at 1 nM, 5 nM, 10 nM, 20 nM, 50 nM, 100 nM, 250 nM, 500 nM, and 1000 nM) were used to conduct the helicase activity assay of […] protein in vitro. The half-maximal inhibitory concentrations of the compounds of the present disclosure on the helicase activity of […] protein were as shown in Table 1.

U251-MG cells = experiment: Half-maximal cell-inhibitory concentration on U251-MG cells (CCK-8); assay type: cell-based; details: Homo sapiens, U-251, U251-MG cells (DHX33-overexpressing cancer cell strain), 48 hours, read-out: IC50 (half-maximal inhibitory concentrations of compounds on U251-MG cells)
In short: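 […]-overexpressing glioma cells seeded at 1×10^4 cells/well, exposed to compound from 5 nM to 20 μM for 48 hours at 37° C, 5% CO2. Viability read by CCK-8 after 2 hours (OD 450 nm); IC50 from inhibition curves, three repeats.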

IC50 (DHX33 protein)	IC50 (U251-MG cells)	SMILES
< 20 nM	< 100 nM	COc1cc2nc(/C(C#N)=C/c3cc(C)n(-c4sc(C)cc4C#N)c3C)[nH]c2cn1 [AB24288, (E)-2-(3-(2-cyano-2-(6-methoxy-3H-imidazo[4,5-c]pyridin-2-yl)vinyl)-2,5-dimethyl-1H-pyrrol-1-yl)-5-methylthiophene-3-carbonitrile]
20 to 100 nM	100 to 1000 nM	COc1ccc2nc(NC(=O)c3cc(C)n(-c4sc(C)cc4C(N)=O)c3C)[nH]c2c1 [AB24387, 1-(3-carbamoyl-5-methylthiophen-2-yl)-N-(6-methoxy-1H-benzo[d]imidazol-2-yl)-2,5-dimethyl-1H-pyrrole-3-carboxamide]
100 to 400 nM	1000 to 5000 nM	Cc1cc(/C=C(\C#N)c2nc3ccccc3[nH]2)c(C)n1-c1oc(-c2ccccc2)cc1C#N [AB24283, (E)-2-(3-(2-(1H-benzo[d]imidazol-2-yl)-2-cyanovinyl)-2,5-dimethyl-1H-pyrrol-1-yl)-5-phenylfuran-3-carbonitrile]
< 20 nM	< 100 nM	COc1ccc2nc(NC(=O)c3cc(C)n(-c4sc(C)cc4C#N)c3C)[nH]c2c1 [AB24386, 1-(3-cyano-5-methylthiophen-2-yl)-N-(6-methoxy-1H-benzo[d]imidazol-2-yl)-2,5-dimethyl-1H-pyrrole-3-carboxamide]
20 to 100 nM	100 to 1000 nM	COc1cc2nc(/C(C#N)=C/c3cc(C)n(-c4sc(C)nc4C(N)=O)c3C)[nH]c2cn1 [AB24351, (E)-5-(3-(2-cyano-2-(6-methoxy-3H-imidazo[4,5-c]pyridin-2-yl)vinyl)-2,5-dimethyl-1H-pyrrol-1-yl)-2-methylthiazole-4-carboxamide]
20 to 100 nM	100 to 1000 nM	Cc1cc(C#N)c(-n2c(C)cc(/C=C(\C#N)c3nc4ccccc4[nH]3)c2C)s1 [AB24270, (E)-2-(3-(2-(1H-benzo[d]imidazol-2-yl)-2-cyanovinyl)-2,5-dimethyl-1H-pyrrol-1-yl)-5-methylthiophene-3-carbonitrile]
< 20 nM	< 100 nM	COc1cc2nc(/C(C#N)=C/c3cc(C)n([C@@H](C)c4ccccc4)c3C)[nH]c2cn1 [AB29506, (S,E)-3-(2,5-dimethyl-1-(1-phenylethyl)-1H-pyrrol-3-yl)-2-(6-methoxy-3H-imidazo[4,5-c]pyridin-2-yl)acrylonitrile]
< 20 nM	< 100 nM	COc1ccc2cc(NC(=O)c3cc(C)n(-c4sc(C)nc4C#N)c3C)[nH]c2c1 [AB29501]
< 20 nM	< 100 nM	COc1cc2nc(/C(C#N)=C/c3cc(C)n(-c4oc(C)c(C)c4C#N)c3C)[nH]c2cn1 [AB24254, (E)-2-(3-(2-cyano-2-(6-methoxy-3H-imidazo[4,5-c]pyridin-2-yl)vinyl)-2,5-dimethyl-1H-pyrrol-1-yl)-4,5-dimethylfuran-3-carbonitrile]
100 to 400 nM	1000 to 5000 nM	Cc1cc(/C=C(\C#N)c2nc3ccccc3[nH]2)c(C)n1-c1ccncc1 [AB24259]
100 to 400 nM	1000 to 5000 nM	COC(=O)c1c(-n2c(C)cc(/C=C(\C#N)c3nc4ccc(OC)cc4[nH]3)c2C)sc(C)c1C [AB24322, methyl (E)-2-(3-(2-cyano-2-(6-methoxy-1H-benzo[d]imidazol-2-yl)vinyl)-2,5-dimethyl-1H-pyrrol-1-yl)-4,5-dimethylthiophene-3-carboxylate]
100 to 400 nM	1000 to 5000 nM	Cc1oc(-n2c(C)cc(/C=C(\C#N)c3nc4ccc(F)cc4[nH]3)c2C)c(C#N)c1C [AB24205]
100 to 400 nM	1000 to 5000 nM	COc1cc2nc(/C(C#N)=C/c3cc(C)n(-c4sc(-c5ccccn5)cc4C#N)c3C)[nH]c2cn1 [AB24336, (E)-2-(3-(2-cyano-2-(6-methoxy-3H-imidazo[4,5-c]pyridin-2-yl)vinyl)-2,5-dimethyl-1H-pyrrol-1-yl)-5-(pyridin-2-yl)thiophene-3-carbonitrile]
< 20 nM	< 100 nM	COc1cc2nc(/C(C#N)=C/c3cc(C)n(Cc4cccs4)c3C)[nH]c2cn1 [AB24399, (E)-3-(2,5-dimethyl-1-(thiophen-2-ylmethyl)-1H-pyrrol-3-yl)-2-(6-methoxy-3H-imidazo[4,5-c]pyridin-2-yl)acrylonitrile]
400 to 1000 nM	5000 to 20000 nM	Cc1oc(-n2c(C)cc(/C=C(\C#N)c3nc4ccccc4[nH]3)c2C)c(C#N)c1C [Compound as control, reference compound]
20 to 100 nM	100 to 1000 nM	CCOC(=O)c1nc(C)sc1-n1c(C)cc(/C=C(\C#N)c2nc3cc(OC)ncc3[nH]2)c1C [AB24314, ethyl (E)-5-(3-(2-cyano-2-(6-methoxy-3H-imidazo[4,5-c]pyridin-2-yl)vinyl)-2,5-dimethyl-1H-pyrrol-1-yl)-2-methylthiazole-4-carboxylate]
100 to 400 nM		COc1ccc2c(c1)[nH]c1cc(-c3cc(C)n(-c4sc(C)cc4C#N)c3C)ccc12 [AB24350, 2-(3-(7-methoxy-9H-carbazol-2-yl)-2,5-dimethyl-1H-pyrrol-1-yl)-5-methylthiophene-3-carbonitrile]
20 to 100 nM	1000 to 5000 nM	COC(=O)c1cc(C)c(-n2c(C)cc(/C=C(\C#N)c3nc4cc(OC)ncc4[nH]3)c2C)s1 [AB24335]
	1000 to 5000 nM	COc1cc2[nH]c(/C(C#N)=C/c3cc(C)n(-c4oc(C)c(C)c4C#N)c3C)nc2cc1Br [AB24266, (E)-2-(3-(2-(5-bromo-6-methoxy-1H-benzo[d]imidazol-2-yl]-2-cyanovinyl)-2,5-dimethyl-1H-pyrrol-1-yl)-4,5-dimethylfuran-3-carbonitrile]
	1000 to 5000 nM	CCOC(=O)c1cc(C#N)c(-n2c(C)cc(/C=C(\C#N)c3nc4cc(OC)ncc4[nH]3)c2C)s1 [AB24320]
	5000 to 20000 nM	Cc1oc(-n2c(C)cc(/C=C(\C#N)c3nc4cc(Cl)c(Cl)cc4[nH]3)c2C)c(C#N)c1C [AB24214, (E)-2-(3-(2-cyano-2-(5,6-dichloro-1H-benzo[d]imidazol-2-yl)vinyl)-2,5-dimethyl-1H-pyrrol-1-yl)-4,5-dimethylfuran-3-carbonitrile]
